Laboratory results published in patent US11395816B2, “Corroles for treating human cytomegalovirus infections” (UNIVERSITE DE BOURGOGNE, priority 2017, dated 2022).
Where two headings read alike, the source gives them in different places.

Assays:
[1] = test system: hCMV; test: hCMV infection assay in ARPE-19 cells (infection level and DNA replication by high content microscopy); type: cell-based, human cytomegalovirus
Method: ARPE-19 human retinal pigmented epithelium cells were used for hCMV infection assay.
Cells were grown in DMEM without phenol red (Sigma-Aldrich) 10% SVF, Pen-strep, 1× sodium pyruvate, 1× Glutamax.
(§1) hCMV infection was carried out on ARPE-19 cells seeded in 96 wells plate, in duplicate at one or two MOI (multiplicity of infection) and 7 concentrations of FNO2Cor, TPFCor, TpNO2Cor. • D0: MRC5/ARPE-19 cells seeded at 6 k per well in Corning Glass Bottom 96 well plates in 200 μL of DMEM without phenol red. • D1: cells were treated with FNO2Cor, TpNO2Cor, TPFCor (from 50 to 0.1 μM by two fold dilutions) in duplicate for the toxicity study. • D3: ARPE-19 cells were treated with Ganciclovir, FNO2Cor, TpNO2Cor, TPFCor (from 5 to 0.07 μM or from 10 to 0.15 μM by two fold dilutions) and were infected at different MOI in duplicate: MOI 10 or 2 for ARPE-19 cells. • D7: ARPE-19 cells at MOI 10 4 d post-infection were fixed with Formalin 10 min at room temperature. Cells were washed with 200 μL PBS and 100 μL PBS/Hoechst® 33342 ( 1/1000) per well. 96 well plates were kept at 4° C. in the dark until data acquisition Image acquisition and analysis for high content quantification was performed on a Thermo Cellomics Arrayscan™ VTI microscope using a modified compartmental analysis algorithm. • D13: ARPE19 cells at MOI 2 10 days post-infection were fixed and image acquisition and analysis were performed as previously described.
On 4 d and 10 d post-infection (2 post-infection times), data acquisition per virus and cell line was done by high content microscopy to calculate infection level and DNA replication according to compound concentration.
Compounds FNO2Cor, TPFCor, TpNO2Cor and anti-hCMV drug Ganciclovir were assessed at 8 different concentrations in ARPE-19 cell culture on 4 days post-infection (FIGS. 2A, 2B) or on 10 days post-infection (FIGS. 3A, 3B) to evaluate their activity for inhibiting hCMV infection and their capacity for inhibiting hCMV replication in ARPE-19 cells.

[2] = test system: ARPE-19 cells; test: Toxicity assessment (cytotoxicity) on ARPE-19 cells; type: cell-based, human; settings: for cytotoxicity (in words): ARPE-19 human retinal pigmented epithelium cells, FIG. 1 and Table I
Method: as §1
(§2) The toxicity of compounds FNO2Cor or TPFCor on ARPE-19 cells was evaluated after 6 days of treatment. 10 concentrations (50, 25, 12.5, 6.25, 3.1, 1.5, 0.75, 0.5, 0.25, 0.1 μM) of FNO2Cor and TPFCor were studied. The compound TpNO2Cor was used as positive control. Cell culture without treatment was used as negative control.
(§3) Cytotoxicity of compounds FNO2Cor, TPFCor and TpNO2Cor were assessed at different concentrations on ARPE-19 cells according to the method described on section 1.3. TpNO2Cor worked as positive reference.

[3] = as above; type: cell-based, human; settings: human; ARPE-19 cells, 6 days of treatment, 0.1-50 μM tested
Method: as §1, §2, §3

[4] = already known, Gros et al., 2015; cited from earlier work
[5] = Human betaherpesvirus 5, ARPE-19, 96 h, read-out: IC50 ARPE (infection inhibition)
[6] = Human betaherpesvirus 5, ARPE-19, 96 h, read-out: IC50 ARPE (replication inhibition)
[7] = Human betaherpesvirus 5, ARPE-19, 240 h, read-out: IC50 ARPE (infection inhibition)
[8] = Human betaherpesvirus 5, ARPE-19, 240 h, read-out: IC50 ARPE (replication inhibition)
[9] = Table V, head prints 4 d PI, text says 10 d PI

| IC50 ([1]; 4 d PI, MOI 10, ARPE-19 cells, read-out: IC50 ARPE (infection inhibition)) | IC50 ([1]; 4 d PI, MOI 10, ARPE-19 cells, read-out: IC50 ARPE (replication inhibition)) | IC50 ([1]; 10 d PI, MOI 2, ARPE-19 cells, read-out: IC50 ARPE (infection inhibition)) | SMILES | Selectivity index (infection inhibition) ([1]; 4 d PI, Table III) | Selectivity index (replication inhibition) ([1]; 4 d PI, Table III) | IC50 [1, 5] | IC50 [1, 6] | IC50 [1, 7] | IC50 [1, 8] | Selectivity index (infection inhibition) [1, 9] | Selectivity index (replication inhibition) [1, 9] | cytotoxicity (in words) [2] | CC50 at 6 days [3] | CC50 [2] | cytotoxicity (in words) [4] |
| --- | --- | --- | --- | --- | --- | --- | --- | --- | --- | --- | --- | --- | --- | --- | --- |
| – | – | – | Fc1c(F)c(F)c(-c2c3nc(c4ccc([nH]4)c(-c4c(F)c(F)c(F)c(F)c4F)c4ccc([nH]4)c(-c4c(F)c(F)c(F)c(F)c4F)c4ccc2[nH]4)C=C3)c(F)c1F [TPFCor, 5,10,15-Tris(pentafluorophenyl)corrole] | 7.38 | 16.28 | 3.53 µM | 1.6 µM | 0.96 µM | 12.3 µM | 27.04 | 2.12 | safe | 26.1 µM | – | – |
| – | – | – | O=[N+]([O-])c1ccc(F)c(-c2c3nc(c4ccc([nH]4)c(-c4cc([N+](=O)[O-])ccc4F)c4ccc([nH]4)c(-c4cc([N+](=O)[O-])ccc4F)c4ccc2[nH]4)C=C3)c1 [FNO2Cor, 5,10,15-Tris(2-fluoro-5-nitrophenyl)corrole] | 21.05 | 8.45 | 2.38 µM | 5.92 µM | 1.25 µM | 11.8 µM | 39.94 | 4.24 | safe | 50 µM | – | – |
| 3.98 µM | 8.34 µM | 1.79 µM | O=[N+]([O-])c1ccc(-c2c3nc(c4ccc([nH]4)c(-c4ccc([N+](=O)[O-])cc4)c4ccc([nH]4)c(-c4ccc([N+](=O)[O-])cc4)c4ccc2[nH]4)C=C3)cc1 [TpNO2Cor, 5,10,15-Tris(4-nitrophenyl)corrole, reference compound] | – | – | – | – | – | – | – | – | – | – | 25 µM | not cytotoxic |
